Measurements reported in patent US9518018B2, “3-alkoxy, thioalkyl and amino-4-amino-6-(substituted)picolinates and their use as herbicides” (Dow AgroSciences LLC, priority 2011, dated 2016).

Tested on: CYPRO = Cyperus rotundus L. (purple nutsedge)
Experiment: In-water applied herbicidal activity in transplanted paddy rice
Format: in vivo
Conditions: 21 DAA
Experimental: Rice seeds were planted in Sun Gro MetroMix 306 planting mixture, which typically has a pH of 6.0 to 6.8 and an organic matter content of about 30 percent, in plastic plug trays. Seedlings at the second or third leaf stage of growth were transplanted into 650 mL of mud contained in 960 mL non-perforated plastic pots with a surface area of 86.59 cm^2 four days prior to herbicide application. The paddy was created by filling the 2.5 to 3 cm headspace of the pots with water. When required to ensure good germination and healthy plants, a fungicide treatment and/or other chemical or physical treatment was applied. The plants were grown for 4-14 d in a greenhouse with an approximate 14-h photoperiod which was maintained at about 29° C. during the day and 26° C. during the night. Nutrients were added as Osmocote (17:6:10, Nitrogen:Phosphorus:Potassium (N:P:K)+minor nutrients) at 2 grams (g) per cup. Water was added on a regular basis to maintain the paddy flood, and supplemental lighting was provided with overhead metal halide 1000-Watt lamps as necessary. The plants were employed for testing when they reached the second or third true leaf stage. Treatments consisted of compounds 45, 34, and 66. For technical grade compounds, a weighed amount, determined by the highest rate to be tested, was placed in an individual 120 mL glass vial and was dissolved in 20 mL of acetone to obtain concentrated stock solutions. […] The concentrated stock solutions obtained were diluted with 20 mL of an aqueous mixture containing 2.5% Agri-dex crop oil concentrate (v/v). Applications were made by injecting an appropriate amount of the stock solution into the aqueous layer of the paddy. Control plants were treated in the same manner with the solvent blank. All treated plant material received the same concentration of acetone and crop oil concentrate. The treated plants and control plants were placed in a greenhouse as described above and water was added as needed to maintain a paddy flood. After approximately 3 weeks, the condition of the test plants, compared with that of the untreated plants, was determined visually and scored on a scale of 0 to 100 percent where 0 corresponds to no injury and 100 corresponds to complete kill. By applying the well-accepted probit analysis as described by J. Berkson in Journal of the […], 48, 565 (1953) and by D. Finney in “Probit Analysis” Cambridge University Press (1952) or by plotting the mean data and fitting a logarithmic curve to the portion of the data where there was a dose response using Microsoft Excel®, the above data can be used to calculate GR50 and GR90 values, which are defined as growth reduction factors that correspond to the effective dose of herbicide required to kill or control 50 percent or 90 percent, respectively, of a target plant.

COc1c(C(=O)OCc2ccccc2)nc(-c2ccc(Cl)c(OC)c2F)c(F)c1N [Compound 66, benzyl 4-amino-6-(4-chloro-2-fluoro-3-methoxyphenyl)-5-fluoro-3-methoxypicolinate]
Mean Visual Injury (%)-21 Days After Application CYPRO (4.38 g ae/ha): 65%
Mean Visual Injury (%)-21 Days After Application CYPRO (8.75 g ae/ha): 100%
Mean Visual Injury (%)-21 Days After Application CYPRO (17.5 g ae/ha): 100%
Mean Visual Injury (%)-21 Days After Application CYPRO (35 g ae/ha): 100%
Mean Visual Injury (%)-21 Days After Application CYPRO (70 g ae/ha): 100%
GR50 CYPRO (dose to kill or control 50 percent): <4.38 g ae/ha
GR90 CYPRO (dose to kill or control 90 percent): 7.2 g ae/ha
